Results published in US20040005256A1, “Crystallization system utilizing atomization” (priority 2002, published 2004).

Assay: maximum concentration of D,L-Threonine dissolved in water
Type: physicochemical
Conditions: solid dissolved in water (solvent) before atomization into acetone anti-solvent
Procedure: For example, the material-containing solution may be composed of a solvent, such as water, and a material to be crystallized, such as D,L-Threonine, dissolved in the water. The anti-solvent could be acetone. The solid D,L-Threonine is dissolved at its maximum concentration ratio (160 g/L) in water. The D,L-Threonine solution is atomized and introduced into the acetone. The atomized solution and the acetone are then mixed to produce the crystallized product.

maximum concentration ratio in water: 160 g/L
SMILES: C[C@@H](O)[C@H](N)C(=O)O (racemic) [D,L-Threonine]
